Experiments:
[1] = BNS breakdown kinetics in deionized water, spectrophotometric at 320 nm; type: physicochemical
Method: BNS stock was composed of 10% BNS, 5% Triton X-114 and 85% carbitol acetate. BNS was diluted in deionized water to the appropriate 10X concentration desired. Breakdown kinetics were measured in a deionized H20/BNS system by spectrophotometric measurement at 320 nm and a BNS half life was determined to be 7 hours. Continuous and separate pumping of uncoupler was by a Masterflex 7552-10 peristalic pump (Cole Parmer, Chicago, IL) through silicon tubing lines into the bioreactor. Feed flow was split 90% organic feed, 10% BNS feed for total flow. New uncoupler feed was made up daily from the previously mentioned stock, since there was only 10% of the original BNS concentration left before the new daily solution of BNS feed was begun. BNS dose of 1, 2 and 5 ppm was based on the total bulk feed. Reservoir solutions were mixed constantly on a Fisher versamix magnetic stir plate at a speed of 0.4/1.0 to prevent settling out of chemical.

[2] = test system: Klebsiella; experiment: CO2 evolution from 14C-D-glucose, second series; type: cell-based; parameters: Cumulative Growth Index Reading (CO2 Blowoff) 0 HR: scale not given here
Method: (§1) Experiments to look at the above conclusions in depth were performed. In these experiments, cultures of Klebsiella were challenged with various concentrations of BNS and the effects on C02 evolution from glucose, viability, TOC (Total Organic Carbon), TIC (Total Inorganic Carbon) production, removal, and DO (Dissolved Oxygen) removal were determined. Concentrations of BNS from 0.05 to 100 µg/mL were used. […] CO2 evolution decreased after 5 gg/mL. […] The viability dropped off after that with 99% inhibition at concentrations somewhere between 10 - 20 µg/mL. Organic carbon removal gave the most puzzling pattern. […] CO2 was produced, however, as reflected by the C02 blowoff experiments and the TIC data. The organic carbon being oxidized (removed) must have been cancelled out by an organic carbon addition caused by limited bacterial lysis. This phenomenon was investigated again. […] It appeared that 5 ppm BNS would be the maximum concentration that could be used for the desired effect, with the majority of favorable results occurring in the 0.05 - 2 ppm range.
(§2) The experiments coordinating the measurements of C02 evolution, TOC reduction, viable count, and dissolved oxygen (DO) reduction were performed as follows: C02 evolution by Klebsiella was measured as described previously using a narrowed set of BNS concentrations. At the same time, Klebsiella cells grown overnight in nutrient broth were standardized into an inoculum of 250 Klett units. These cells were used to inoculate 19 mL quantities of fresh nutrient broth (1 mL inoculum) in baffled shake flasks. These shake flasks were placed into water bath shakers at 37°C and allowed to shake for 5 hours. Concentrations of BNS equivalent to the C02 blowoff experiment were added to the flasks at the beginning of the experiment. Controls containing no BNS were included for comparisons. Total organic carbon measurements were taken after 5 hours incubation. Viable counts were done at 1 hour, 3 hours, and 5 hours. A parallel experiment was performed using the same setup except that after BNS additions, the flasks were shaken for 30 minutes and then held stationary. DO measurements were taken at 5 hours incubation with the use of a YSI Model 54A oxygen meter.

[3] = test system: Klebsiella; experiment: Dissolved oxygen removal in nutrient broth; type: cell-based; conditions: 5 hours
Method: Experiments to look at the above conclusions in depth were performed. In these experiments, cultures of Klebsiella were challenged with various concentrations of BNS and the effects on C02 evolution from glucose, viability, TOC (Total Organic Carbon), TIC (Total Inorganic Carbon) production, removal, and DO (Dissolved Oxygen) removal were determined. Concentrations of BNS from 0.05 to 100 µg/mL were used. […] CO2 evolution decreased after 5 gg/mL. […] The viability dropped off after that with 99% inhibition at concentrations somewhere between 10 - 20 µg/mL. Organic carbon removal gave the most puzzling pattern. […] CO2 was produced, however, as reflected by the C02 blowoff experiments and the TIC data. The organic carbon being oxidized (removed) must have been cancelled out by an organic carbon addition caused by limited bacterial lysis. This phenomenon was investigated again. […]
The experiments coordinating the measurements of C02 evolution, TOC reduction, viable count, and dissolved oxygen (DO) reduction were performed as follows: C02 evolution by Klebsiella was measured as described previously using a narrowed set of BNS concentrations. […] These cells were used to inoculate 19 mL quantities of fresh nutrient broth (1 mL inoculum) in baffled shake flasks. […]

[4] = test system: Klebsiella; experiment: Total organic carbon removal in nutrient broth shake flasks; type: cell-based; conditions: for % Org. Carbon Removal / Tot. Inorg. Carbon / Tot. Org. Carbon / Total Carbon: 5 Hours
Method: as §1, §2

O=[N+]([O-])C(Br)=Cc1ccccc1 [BNS, beta-bromo-beta-nitrostyrene]
half-life ([1]; deionized water, deionized H20/BNS system, 320 nm): 7 h | original BNS concentration left ([1]; diluted feed in deionized water, before the new daily solution): 10% | Cumulative Growth Index Reading (CO2 Blowoff) 0 HR ([2]; BNS 0.05 μg/mL): 2 | Cumulative Growth Index Reading (CO2 Blowoff) 0.5 HR ([2]; BNS 0.05 μg/mL): 762 | Cumulative Growth Index Reading (CO2 Blowoff) 1 HR ([2]; BNS 0.05 μg/mL): 1,082 | Cumulative Growth Index Reading (CO2 Blowoff) 3 HR ([2]; BNS 0.05 μg/mL): 1,642 | Cumulative Growth Index Reading (CO2 Blowoff) 5 HR ([2]; BNS 0.05 μg/mL): 2,012 | Cumulative Growth Index Reading (CO2 Blowoff) 0 HR ([2]; BNS 0.1 μg/mL): 2 | Cumulative Growth Index Reading (CO2 Blowoff) 0.5 HR ([2]; BNS 0.1 μg/mL): 877 | Cumulative Growth Index Reading (CO2 Blowoff) 1 HR ([2]; BNS 0.1 μg/mL): 1,197 | Cumulative Growth Index Reading (CO2 Blowoff) 3 HR ([2]; BNS 0.1 μg/mL): 1,797 | Cumulative Growth Index Reading (CO2 Blowoff) 5 HR ([2]; BNS 0.1 μg/mL): 2,197 | Cumulative Growth Index Reading (CO2 Blowoff) 0 HR ([2]; BNS 0.5 μg/mL): 1 | Cumulative Growth Index Reading (CO2 Blowoff) 0.5 HR ([2]; BNS 0.5 μg/mL): 801 | Cumulative Growth Index Reading (CO2 Blowoff) 1 HR ([2]; BNS 0.5 μg/mL): 1,121 | Cumulative Growth Index Reading (CO2 Blowoff) 3 HR ([2]; BNS 0.5 μg/mL): 1,761 | Cumulative Growth Index Reading (CO2 Blowoff) 5 HR ([2]; BNS 0.5 μg/mL): 2,201 | Cumulative Growth Index Reading (CO2 Blowoff) 0 HR ([2]; BNS 1.0 μg/mL): 1 | Cumulative Growth Index Reading (CO2 Blowoff) 0.5 HR ([2]; BNS 1.0 μg/mL): 761 | Cumulative Growth Index Reading (CO2 Blowoff) 1 HR ([2]; BNS 1.0 μg/mL): 1,091 | Cumulative Growth Index Reading (CO2 Blowoff) 3 HR ([2]; BNS 1.0 μg/mL): 1,741 | Cumulative Growth Index Reading (CO2 Blowoff) 5 HR ([2]; BNS 1.0 μg/mL): 2,201 | Cumulative Growth Index Reading (CO2 Blowoff) 0 HR ([2]; BNS 2 μg/mL): 2 | Cumulative Growth Index Reading (CO2 Blowoff) 0.5 HR ([2]; BNS 2 μg/mL): 752 | Cumulative Growth Index Reading (CO2 Blowoff) 1 HR ([2]; BNS 2 μg/mL): 1,072 | Cumulative Growth Index Reading (CO2 Blowoff) 3 HR ([2]; BNS 2 μg/mL): 1,732 | Cumulative Growth Index Reading (CO2 Blowoff) 5 HR ([2]; BNS 2 μg/mL): 2,212 | Cumulative Growth Index Reading (CO2 Blowoff) 0 HR ([2]; BNS 5 μg/mL): 0 | Cumulative Growth Index Reading (CO2 Blowoff) 0.5 HR ([2]; BNS 5 μg/mL): 750 | Cumulative Growth Index Reading (CO2 Blowoff) 1 HR ([2]; BNS 5 μg/mL): 1,032 | Cumulative Growth Index Reading (CO2 Blowoff) 3 HR ([2]; BNS 5 μg/mL): 1,570 | Cumulative Growth Index Reading (CO2 Blowoff) 5 HR ([2]; BNS 5 μg/mL): 1,980 | Cumulative Growth Index Reading (CO2 Blowoff) 0 HR ([2]; BNS 10 μg/mL): 2 | Cumulative Growth Index Reading (CO2 Blowoff) 0.5 HR ([2]; BNS 10 μg/mL): 682 | Cumulative Growth Index Reading (CO2 Blowoff) 1 HR ([2]; BNS 10 μg/mL): 952 | Cumulative Growth Index Reading (CO2 Blowoff) 3 HR ([2]; BNS 10 μg/mL): 1,392 | Cumulative Growth Index Reading (CO2 Blowoff) 5 HR ([2]; BNS 10 μg/mL): 1,662 | Cumulative Growth Index Reading (CO2 Blowoff) 0 HR ([2]; BNS 20 μg/mL): 1 | Cumulative Growth Index Reading (CO2 Blowoff) 0.5 HR ([2]; BNS 20 μg/mL): 451 | Cumulative Growth Index Reading (CO2 Blowoff) 1 HR ([2]; BNS 20 μg/mL): 616 | Cumulative Growth Index Reading (CO2 Blowoff) 3 HR ([2]; BNS 20 μg/mL): 916 | Cumulative Growth Index Reading (CO2 Blowoff) 5 HR ([2]; BNS 20 μg/mL): 1,101 | Cumulative Growth Index Reading (CO2 Blowoff) 0 HR ([2]; BNS 50 μg/mL): 1 | Cumulative Growth Index Reading (CO2 Blowoff) 0.5 HR ([2]; BNS 50 μg/mL): 271 | Cumulative Growth Index Reading (CO2 Blowoff) 1 HR ([2]; BNS 50 μg/mL): 381 | Cumulative Growth Index Reading (CO2 Blowoff) 3 HR ([2]; BNS 50 μg/mL): 651 | Cumulative Growth Index Reading (CO2 Blowoff) 5 HR ([2]; BNS 50 μg/mL): 876 | Cumulative Growth Index Reading (CO2 Blowoff) 0 HR ([2]; BNS 100 μg/mL): 2 | Cumulative Growth Index Reading (CO2 Blowoff) 0.5 HR ([2]; BNS 100 μg/mL): 97 | Cumulative Growth Index Reading (CO2 Blowoff) 1 HR ([2]; BNS 100 μg/mL): 202 | Cumulative Growth Index Reading (CO2 Blowoff) 3 HR ([2]; BNS 100 μg/mL): 287 | Cumulative Growth Index Reading (CO2 Blowoff) 5 HR ([2]; BNS 100 μg/mL): 365 | concentrations at which oxygen was consumed at levels approaching control values [3]: up to 2 ppm | % Org. Carbon Removal ([4]; BNS 0.05 µg/mL): 37% | Tot. Inorg. Carbon ([4]; BNS 0.05 µg/mL): 145 µg/mL | Tot. Org. Carbon ([4]; BNS 0.05 µg/mL): 2,205 µg/mL | Total Carbon ([4]; BNS 0.05 µg/mL): 2,350 µg/mL | % Org. Carbon Removal ([4]; BNS 0.1 µg/mL): +9% | Tot. Inorg. Carbon ([4]; BNS 0.1 µg/mL): 155 µg/mL | Tot. Org. Carbon ([4]; BNS 0.1 µg/mL): 3,845 µg/mL | Total Carbon ([4]; BNS 0.1 µg/mL): 4,000 µg/mL | % Org. Carbon Removal ([4]; BNS 0.5 µg/mL): 1% | Tot. Inorg. Carbon ([4]; BNS 0.5 µg/mL): 145 µg/mL | Tot. Org. Carbon ([4]; BNS 0.5 µg/mL): 3,455 µg/mL | Total Carbon ([4]; BNS 0.5 µg/mL): 3,600 µg/mL | % Org. Carbon Removal ([4]; BNS 1.0 µg/mL): 6% | Tot. Inorg. Carbon ([4]; BNS 1.0 µg/mL): 120 µg/mL | Tot. Org. Carbon ([4]; BNS 1.0 µg/mL): 3,280 µg/mL | Total Carbon ([4]; BNS 1.0 µg/mL): 3,400 µg/mL | % Org. Carbon Removal ([4]; BNS 2 µg/mL): +16% | Tot. Inorg. Carbon ([4]; BNS 2 µg/mL): 96 µg/mL | Tot. Org. Carbon ([4]; BNS 2 µg/mL): 4,054 µg/mL | Total Carbon ([4]; BNS 2 µg/mL): 4,150 µg/mL | % Org. Carbon Removal ([4]; BNS 5 µg/mL): +35% | Tot. Inorg. Carbon ([4]; BNS 5 µg/mL): 63 µg/mL | Tot. Org. Carbon ([4]; BNS 5 µg/mL): 4,737 µg/mL | Total Carbon ([4]; BNS 5 µg/mL): 4,800 µg/mL | % Org. Carbon Removal ([4]; BNS 10 µg/mL): +11% | Tot. Inorg. Carbon ([4]; BNS 10 µg/mL): 12 µg/mL | Tot. Org. Carbon ([4]; BNS 10 µg/mL): 3,888 µg/mL | Total Carbon ([4]; BNS 10 µg/mL): 3,900 µg/mL | % Org. Carbon Removal ([4]; BNS 20 µg/mL): +19% | Tot. Inorg. Carbon ([4]; BNS 20 µg/mL): 9 µg/mL | Tot. Org. Carbon ([4]; BNS 20 µg/mL): 4,191 µg/mL | Total Carbon ([4]; BNS 20 µg/mL): 4,200 µg/mL | % Org. Carbon Removal ([4]; BNS 50 µg/mL): +31% | Tot. Inorg. Carbon ([4]; BNS 50 µg/mL): 7 µg/mL | Tot. Org. Carbon ([4]; BNS 50 µg/mL): 4,593 µg/mL | Total Carbon ([4]; BNS 50 µg/mL): 4,600 µg/mL | % Org. Carbon Removal ([4]; BNS 100 µg/mL): +102% | Tot. Inorg. Carbon ([4]; BNS 100 µg/mL): 7 µg/mL | Tot. Org. Carbon ([4]; BNS 100 µg/mL): 7,093 µg/mL | Total Carbon ([4]; BNS 100 µg/mL): 7,100 µg/mL | concentrations resulting in increases in TOC ([4]; nutrient broth, 5 hours): ≥ 2 µg/mL

— patent EP0162545A2, “Enhanced bioconversion processes” (BETZ EUROPE, INC., priority 1984, dated 1985)
